{"source": "patent US11311593B2", "about": "“Root extracts from plants of the Morus genus and uses of same” (PLANT ADVANCED TECHNOLOGIES PAT, priority 2017, dated 2022)", "key": {"[1]": {"target": "T1, hyaluronidase originating from bull testicles (type IV-S) (Bos taurus, UniProt Q2YDK3)", "T1 construct": "hyaluronidase originating from bull testicles (type IV-S); from tissue; host or cells: bull testicles", "T1 sequence (Q2YDK3 36-553)": "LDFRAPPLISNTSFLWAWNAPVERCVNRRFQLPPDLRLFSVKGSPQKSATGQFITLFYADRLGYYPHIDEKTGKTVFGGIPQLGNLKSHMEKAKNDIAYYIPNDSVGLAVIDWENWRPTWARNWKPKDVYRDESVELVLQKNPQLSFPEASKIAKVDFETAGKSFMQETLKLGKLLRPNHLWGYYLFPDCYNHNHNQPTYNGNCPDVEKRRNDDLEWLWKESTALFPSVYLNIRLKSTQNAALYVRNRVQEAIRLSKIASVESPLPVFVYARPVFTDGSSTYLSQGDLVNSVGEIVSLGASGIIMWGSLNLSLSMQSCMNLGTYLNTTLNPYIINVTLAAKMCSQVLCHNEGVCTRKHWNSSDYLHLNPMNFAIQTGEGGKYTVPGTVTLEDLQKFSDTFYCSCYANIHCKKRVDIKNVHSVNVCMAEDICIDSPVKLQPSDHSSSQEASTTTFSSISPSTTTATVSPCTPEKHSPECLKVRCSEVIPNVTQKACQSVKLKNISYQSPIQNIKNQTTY", "assay": "Anti-hyaluronidase inhibiting activity, hyaluronic acid as substrate, precipitation with acidic BSA", "assay_type": "biochemical", "description": "A root extract of Morus Alba was prepared in accordance with the protocol described in Example 5. Hyaluronidase catalyzes the hydrolysis of hyaluronic acids into monosaccharides, disaccharides and short oligosaccharides. The measurement of the anti-hyaluronidase inhibiting activity was carried out using hyaluronic acid (HA) as a substrate in order to follow its reduction during the enzymatic reaction, the slope of the reduction of the concentration of HA during the reaction being proportional to the enzymatic activity.\nThe concentration of HA was measured in accordance with the following principle: in the presence of an acidic solution of bovine serum albumin, HA precipitates. Thus, in the case of the presence of HA, a precipitate is formed and in the case of complete hydrolysis of the HA, no precipitate is observed. Thus, the quantity of precipitation is proportion& to the HA content. […]\nIn order to follow the enzymatic degradation of the HA, a volume of 50 μl of RM was removed every 15 minutes, mixed with a volume of 250 μL of the solution of acidic BSA (acidic solution of bovine serum albumin: 24 mM sodium acetate, 79 mM acetic add and 0.1% (w/v) bovine serum albumin, pH 3.75) then incubated for 10 min at ambient temperature. The quantity of precipitate formed was then measured using a plate reader (diffusion of light at 600 nm). […]"}, "hyaluronidase": {"test_system": "hyaluronidase", "assay": "Target Binding affinity test for hyaluronidase", "details": "ligands in non-stimulated M. alba root extract; moracenin B = reference ligand", "description": "A root extract of Morus Alba was prepared in accordance with the protocol described in Example 2.1. The Target Binding® method used was that of Example 2.3 which is described in patent application FR 1 670 545. The experimental protocol was as follows: The target, a 5 mg/mL solution of hyaluronidase, was prepared by dissolving powdered lyophilized enzyme in 50 mM sodium phosphate, with a pH of 7.0. The extract corresponded to the supernatant obtained in accordance with Example 2.1. It could optionally be centrifuged once again before use, at 21000 g for 15 min, in order to eliminate the solid particles before use. A reference sample was also prepared by diluting the sample 10-fold in a solution of water and a quarter of the volume of acetonitrile.\n1. Preconditioning step—Wells with a filtering membrane were preconditioned with a volume of 500 μL of a solution of 50 mM sodium phosphate, at a pH of 7.0 which was passed through the membrane by centrifuging at 14000 g for 60 seconds.\n2. Binding step—The hyaluronidase preparation (5 mg/mL) was mixed with 7.5 μL of the root extract for 5 min in a plastic Eppendorf tube.\n3. Washing step—the mixture of the enzyme and the root extract was deposited in a well that had been preconditioned in the preconditioning step, then centrifuged at 14000 g until most of the solvent had been eliminated. The enzyme-ligand complexes remained on the surface of the membrane of the filter then were re-suspended in a volume of 100 μL of the same solution of 50 mM sodium phosphate at a pH of 7.0, and centrifuged at 14000 g until the solvent had been eliminated. This procedure was repeated three times and eliminated all of the compounds that were not bound to the enzyme. 4. Separation step—The enzyme-ligand complexes retained in the filter were re-suspended in a volume of 10 μL of ultra-pure water then mixed with a volume of 40 μL of acetonitrile in order to denature and precipitate the enzyme and at the same time to liberate the ligands. The mixture was centrifuged at 21000 g for 10 min in order to separate the precipitate from the supernatant. 5. Analysis step—Said supernatant was analyzed by liquid phase chromatography coupled to a mass spectrometer, also known by the acronym UPLC-MS. The reference sample was also analyzed in the same manner, using the same analytical conditions.\nThe UPLC-MS analysis was carried out in accordance with the protocol described in Example 1."}}}
{"compound": "CC(C)=CCc1c(O)ccc(C(=O)[C@@H]2CC(C)=C[C@H](c3c(O)cc(O)c4c(=O)c(CC=C(C)C)c(-c5ccc(O)cc5O)oc34)[C@H]2c2ccc(O)cc2O)c1O", "note": "[Moracenin A, moracenin A]", "values": [{"measurement": "inhibition at 10 µM", "setting": "[1]", "result": 55.1, "unit": "%"}, {"measurement": "Relative affinity (RA) for hyaluronidase", "setting": "hyaluronidase", "result": 1.9}]}
{"compound": "CC(C)=CCc1c(O)ccc(C(=O)C2C(c3ccc(O)cc3O)CC3(C)CC2c2c(O)cc(-c4cc5ccc(O)cc5o4)cc2O3)c1O", "note": "(stereo not shown) [Wittiorumin F, wittiorumin F]", "values": [{"measurement": "Relative affinity (RA) for hyaluronidase", "setting": "hyaluronidase", "result": 2.1}]}
{"compound": "CC(C)=CCc1c(-c2ccc(O)cc2O)oc2c([C@H]3C=C(C)C[C@H](C(=O)c4ccc(O)cc4O)[C@@H]3c3ccc(O)cc3O)c(O)cc(O)c2c1=O", "note": "[Moracenin B, moracenin B]", "values": [{"measurement": "Relative affinity (RA) for hyaluronidase", "setting": "hyaluronidase", "result": 1.0}]}
